Laboratory results as given in patent publication US20240270821A1, “GIP/GLP1/GCG TRI-RECEPTOR AGONISTS AND USES THEREOF” (priority 2023, published 2024).
Starred links: 1 amine or outer side, 2 acyl side, 3 side chain; linkers in the order of their positions; H or OH if unused. Non-standard residues stand in square brackets, D forms with d. Groups on a side chain read outwards from the residue. No end group written: not given here. *: point of attachment. C20 diacid = O=C(O)CCCCCCCCCCCCCCCCCCC(=O)*; C18 diacid = O=C(O)CCCCCCCCCCCCCCCCC(=O)*; αMePhe(2-F) = C[C@](N)(Cc1ccccc1F)C(=O)O; γGlu = O=C(O)[C@H](CCC(=O)[*:2])N[*:1]; αMe4Pal = C[C@](N)(Cc1ccncc1)C(=O)O; αMeY = C[C@](N)(Cc1ccc(O)cc1)C(=O)O; 4Pal = N[C@@H](Cc1ccncc1)C(=O)O; αMeL = CC(C)C[C@](C)(N)C(=O)O; αMeS = C[C@](N)(CO)C(=O)O; Orn = NCCC[C@H](N)C(=O)O; AEEA = NCCOCCOCC(=O)O; Aib = CC(C)(N)C(=O)O

Key:
Type in all cases: cell-based
hGLP-1R [1] = biological target: T1, hGLP-1R (Homo sapiens, UniProt P43220); assay: Functional cAMP activity in the presence of 1% HSA; conditions: read-out: cAMP Rel EC50, hGLP-1R
human GcgR = human GcgR (Homo sapiens, UniProt P47871); assay: Functional cAMP activity in the presence of 1% HSA; conditions: read-out: cAMP Rel EC50, hGcgR
hGLP-1R [2] = biological target: T1, hGLP-1R; assay: Functional cAMP activation in the presence of 0.1% casein (no HSA); conditions: in the presence of 0.1% casein (no HSA); geometric mean; read-out: Relative cAMP EC50, hGLP-1R;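 on Relative cAMP EC50, hGIPR: intracellular cAMP rise after 30 min at 37 °C read by HTRF against a standard curve, scaled between buffer alone (0%) and top control ligand concentration (100%), four-parameter fit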;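 on Relative cAMP EC50, hGLP-1R: intracellular cAMP rise after 30 min at 37 °C read by HTRF, normalized between buffer only (0%) and maximal control ligand (100%), four-parameter variable-slope fit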;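 on Relative cAMP EC50, hGcgR: intracellular cAMP rise after 30 min at 37 °C, read by HTRF against a cAMP standard curve, scaled from buffer only (0%) to maximal control ligand response (100%)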
hGIPR [3] = biological target: T2, hGIPR (Homo sapiens, UniProt P48546); assay: as above; conditions: in the presence of 0.1% casein (no HSA); geometric mean; read-out: Relative cAMP EC50, hGIPR;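 further: intracellular cAMP rise after 30 min at 37 °C read by HTRF against a standard curve, scaled between buffer alone (0%) and top control ligand concentration (100%), four-parameter fit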
T2 sequence (P48546 22-466): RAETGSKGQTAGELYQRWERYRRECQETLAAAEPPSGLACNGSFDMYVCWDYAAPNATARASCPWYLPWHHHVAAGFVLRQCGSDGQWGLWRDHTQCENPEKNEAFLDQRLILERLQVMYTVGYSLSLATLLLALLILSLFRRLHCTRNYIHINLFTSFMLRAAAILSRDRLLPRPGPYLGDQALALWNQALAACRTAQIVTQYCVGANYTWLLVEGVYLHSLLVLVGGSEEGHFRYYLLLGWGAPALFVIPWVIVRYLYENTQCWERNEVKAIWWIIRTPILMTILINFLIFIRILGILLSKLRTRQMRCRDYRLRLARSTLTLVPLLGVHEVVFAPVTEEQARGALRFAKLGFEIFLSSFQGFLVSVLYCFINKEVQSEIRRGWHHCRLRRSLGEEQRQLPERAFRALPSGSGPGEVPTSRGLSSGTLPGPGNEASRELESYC

hGcgR = hGcgR (Homo sapiens, UniProt P47871); assay: as above; conditions: in the presence of 0.1% casein (no HSA); geometric mean; read-out: Relative cAMP EC50, hGcgR;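 further: intracellular cAMP rise after 30 min at 37 °C, read by HTRF against a cAMP standard curve, scaled from buffer only (0%) to maximal control ligand response (100%)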
hGIPR [4] = biological target: T2, hGIPR; assay: Functional cAMP activity in the presence of 1% HSA; conditions: read-out: cAMP Rel EC50, hGIPR

Sequence of hGcgR (P47871 26-477): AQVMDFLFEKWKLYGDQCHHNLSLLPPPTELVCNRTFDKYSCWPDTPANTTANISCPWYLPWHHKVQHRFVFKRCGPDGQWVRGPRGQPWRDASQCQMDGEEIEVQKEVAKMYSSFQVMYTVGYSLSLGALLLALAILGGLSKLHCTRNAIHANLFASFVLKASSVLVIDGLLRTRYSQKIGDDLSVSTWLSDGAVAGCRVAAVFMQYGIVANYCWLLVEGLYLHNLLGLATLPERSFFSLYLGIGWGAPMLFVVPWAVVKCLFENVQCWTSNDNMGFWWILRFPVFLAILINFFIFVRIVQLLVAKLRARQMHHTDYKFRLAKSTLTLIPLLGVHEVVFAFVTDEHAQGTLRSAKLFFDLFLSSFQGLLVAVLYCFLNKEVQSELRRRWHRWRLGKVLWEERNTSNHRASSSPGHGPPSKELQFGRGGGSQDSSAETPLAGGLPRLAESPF
Sequence of human GcgR (P47871 26-477): as above
T1 sequence (P43220 24-463): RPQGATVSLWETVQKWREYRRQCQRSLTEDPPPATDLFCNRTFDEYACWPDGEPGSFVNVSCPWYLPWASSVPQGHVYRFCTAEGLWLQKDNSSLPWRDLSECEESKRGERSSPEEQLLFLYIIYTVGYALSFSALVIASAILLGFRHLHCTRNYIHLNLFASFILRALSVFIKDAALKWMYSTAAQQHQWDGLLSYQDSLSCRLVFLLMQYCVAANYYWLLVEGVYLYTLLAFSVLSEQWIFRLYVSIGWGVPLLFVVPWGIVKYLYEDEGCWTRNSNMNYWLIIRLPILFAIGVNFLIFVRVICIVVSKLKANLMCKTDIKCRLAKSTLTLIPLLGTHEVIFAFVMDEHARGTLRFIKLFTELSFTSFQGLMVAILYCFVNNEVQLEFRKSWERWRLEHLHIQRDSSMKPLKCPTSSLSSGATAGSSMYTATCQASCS

| Molecule | EC50 (hGLP-1R [1]) [nM] | EC50 (human GcgR) [nM] | EC50 (hGLP-1R [2]) [nM] | EC50 (hGIPR [3]) [nM] | EC50 (hGcgR) [nM] | EC50 (hGIPR [4]) [nM] |
| --- | --- | --- | --- | --- | --- | --- |
| H-Y[Aib]QGTFTSD[4Pal]SQ[αMeL]LDKK([Glu-Glu-γGlu-C18 diacid])AQ[αMe4Pal]AFIEYLIAGGPSSGAPPPSGE-NH2 [Example 1087] | 439 | 2460 | 2.63 | 0.207 | 15.4 | 23.3 |
| Y[Aib]QGTFTSD[4Pal]SQ[αMeL]LD[Orn]K([dE-γGlu-C18 diacid])AQ[αMe4Pal]AFIQ[αMeY]LLEGGPSSGAPPPSGSEEE-NH2 [Example 1083] | 547 | 1030 | 7.76 | 0.328 | 15 | 20.5 |
| H-Y[Aib]QGTFTSD[4Pal]SQ[αMeL]LDKK([γGlu-γGlu-C18 diacid])AQ[αMe4Pal]AFIE[αMe4Pal]LIE[Aib]GPSSGEPPPSGEEE-NH2 [Example 1124] | 304 | 400 | 10.1 | 0.187 | 6.97 | 12 |
| H-Y[Aib]QGT[αMePhe(2-F)]TSD[4Pal][αMeS]I[αMeL]LD[Orn]K([AEEA-γGlu-γGlu-C18 diacid])AQ[αMe4Pal]EFI[dE][αMeY]LIEGGPSSGEPPPSGE-NH2 [Example 1177] | 43.6 | 156 | 0.681 | 0.0114 | 4.23 | 0.544 |
| H-Y[Aib]QGTFTSD[4Pal]SK[αMeL]LDKK([γGlu-γGlu-C18 diacid])AQ[Aib]AFIEYLIE[Aib]GPSSGAPPPSGSE-NH2 [Example 904] | 198 | 1330 | 1.94 | 0.194 | 9.88 | 15 |
| CC[C@H](C)[C@H](NC(=O)[C@H](Cc1ccccc1)NC(=O)[C@H](C)NC(=O)[C@](C)(Cc1ccncc1)NC(=O)[C@H](CCC(N)=O)NC(=O)[C@H](C)NC(=O)[C@H](CCCCNC(=O)COCCOCCNC(=O)CC[C@H](NC(=O)CC[C@H](NC(=O)CCCCCCCCCCCCCCCCC(=O)O)C(=O)O)C(=O)O)NC(=O)[C@H](CCCN)NC(=O)[C@H](CC(=O)O)NC(=O)[C@H](CC(C)C)NC(=O)[C@](C)(CC(C)C)NC(=O)[C@H](CCC(N)=O)NC(=O)[C@H](CO)NC(=O)[C@H](Cc1ccncc1)NC(=O)[C@H](CC(=O)O)NC(=O)[C@H](CO)NC(=O)[C@@H](NC(=O)[C@H](Cc1ccccc1)NC(=O)[C@@H](NC(=O)CNC(=O)[C@H](CCC(N)=O)NC(=O)C(C)(C)NC(=O)[C@@H](N)Cc1ccc(O)cc1)[C@@H](C)O)[C@@H](C)O)C(=O)N[C@@H](CCC(=O)O)C(=O)N[C@@H](Cc1ccc(O)cc1)C(=O)N[C@@H](CC(C)C)C(=O)N[C@H](C(=O)N[C@@H](CCC(=O)O)C(=O)N[C@H](C)C(=O)NCC(=O)N1CCC[C@H]1C(=O)N[C@@H](CO)C(=O)N[C@@H](CO)C(=O)NCC(=O)N[C@@H](C)C(=O)N1CCC[C@H]1C(=O)N1CCC[C@H]1C(=O)N1CCC[C@H]1C(=O)N[C@@H](CO)C(=O)NCC(=O)N[C@@H](CO)C(=O)N[C@@H](CCC(=O)O)C(N)=O)[C@@H](C)CC [Example 1022] | 203 | 586 | 3.28 | 0.35 | 6.93 | 27.9 |
| H-Y[Aib]QGTFTSDFS[Orn][αMeL]LDKK([AEEA-γGlu-C20 diacid])AQ[Aib]AFIEYLLAGGPSSGEPPPEGE-NH2 [Example 102] | 1060 | 2710 | 3.35 | 0.587 | 9.75 | 159 |
| H-Y[Aib]QGTFTSD[4Pal]SQ[αMeL]LD[Orn]K([AEEA-γGlu-C18 diacid])AQ[αMe4Pal]QFIE[αMeY]LIEGGPSSGAPPPSGS-NH2 [Example 857] | 87.3 | 1050 | 0.433 | 0.441 | 6.21 | 36.1 |
